According to patent US7939097B2, “Intraocular lens containing releasable medication” (Carl Zeiss Meditec SAS, priority 1996, dated 2011):
Values joined by “and” are separate entries in the source; they are usually repeats but may differ in a detail not shown here. Equal entries are not always repeated.

How the values were obtained:
[1] = In vitro release of diclofenac from polyHEMA soft IOLs, impregnated for 7 days (Example 8); assay type: physicochemical; conditions: for Released quantities: polyHEMA IOL impregnated 7 days in saturated diclofenac; for Cumulative or total released quantities: polyHEMA IOL impregnated 7 days
Procedure: (§1) Initially, polyHEMA soft IOLs were impregnated by immersing them in a solution saturated with diclofenac (1.8 mg/ml, prepared by dissolving sodium diclofenac in a 0.9% solution of NaCl), at room temperature for 72 hours, carefully rinsed and then released into 1 ml of a 0.9% NaCl solution. After 6 hours, 24 hours and 96 hours, the diclofenac was measured in the release solution by HPLC, after which the IOL was rinsed and, for the intermediate durations, left to release in a new solution. It is understood that the released quantities correspond to the quantities previously absorbed and fixed in the IOLs The experiment of Example 7 was repeated leaving the IOLs in the saturated solution for 7 days instead of 3. The quantities released were checked after 6 hours and 24 hours.

[2] = Saturated diclofenac solution in 0.9% NaCl; assay type: physicochemical; conditions: sodium diclofenac dissolved in 0.9% NaCl solution
Procedure: as §1, with “In all the preceding examples the diclofenac was used at concentrations” for “The experiment”, “1.8 mg/ml or 1.5 mg/ml that is at or only slightly below” for “Example 7 was repeated leaving”, “saturation level.” for “IOLs in the saturated solution for 7 days instead of 3. The quantities released were checked after 6 hours and 24 hours.”

[3] = In vitro kinetics of release of diclofenac at 35° C. over 14 days; assay type: physicochemical; conditions: release in 0.9% NaCl at 35° C.
Procedure: The following experiments were intended to determine more precisely the kinetics of release of diclofenac (in vitro experiments). As previously, the quantities released were measured by sampling the release medium (0.9% neutral NaCl solution) at intervals for measurement and renewing it for a new interval. The samples were taken after 6 hours and 24 hours and then every 24 hours for 14 days in total. To approximate the actual (i.e. in vivo) conditions of use more closely, release was effected at 35° C. The IOLs were impregnated by two different methods. […] A second experiment was carried out without sterilization, the IOLs remaining in the diclofenac solution for 24 hours. The quantities released were substantially the same, to within ±10%, and are set out in the table below in hours (H), days (D) and μg/ml.

[4] = Forced release of diclofenac after autoclaving and 10 days in the impregnation solution (Example 10); assay type: physicochemical
Procedure: Each of three hydrophilic acrylic implants of the type used in Example 9 was first introduced into the container with a 0.9% NaCl solution containing 1.5 mg/ml diclofenac solution. The container was then autoclaved at 122° C. for 30 minutes. After autoclaving, the IOLs were left in their impregnation solution for 10 days at ambient temperature. The procedure described in Example 9 was used to release the absorbed quantities of the diclofenac from the IOLs. The amounts released were respectively 83.57 μg, 101.66 μg, 84.16 μg or an average of 89.79 μg per implant.

[5] = system: postoperative inflammation of the eye; experiment: Anti-inflammatory effect of diclofenac-impregnated IOL after cataract operation in rabbits (Example 14); assay type: in vivo, rabbit; conditions: diclofenac-impregnated IOL versus same IOL without medicated product in opposite eye, three rabbits
Procedure: A test was carried out on three rabbits which were implanted with hydrophilic acrylic IOLs impregnated by autoclaving in a 1.5 mg/ml diclofenac solution at 120° C. for 30 minutes as described in Example 9 above. The object of this test was to determine the anti-inflammatory effect of diclofenac after a cataract operation. After extraction, the crystalline lens in each eye, the left eye was fitted with an impregnated IOL according to the invention and the right eye with the same kind of IOL with no medicated product therein. The eyes of the rabbit were examined by an operator on day one and microscopically by an ophtalmologist on day 7 and day 14 after the operation. The observations are set out in the following table.

[6] = Diclofenac fixed from lower-concentration solutions after prior sterilization (Example 13); assay type: physicochemical; conditions: pre-sterilized hydrophilic acrylic IOL; for quantity of diclofenac fixed per IOL: 4 days of immersion
Procedure: In these tests, the hydrophilic acrylic IOLs were first sterilized in their sealed containers in a 0.9% NaCl solution, in accordance with the standard sterilization procedure used for conventional IOLs. The solution contained no active ingredient of any kind. After sterilization at 121° C. for 30 minutes the containers were opened and the IOLs transferred to other containers which had previously been filled with a 0.9% NaCl solution including respectively 0.9 mg/ml, 0.45 mg/ml and 0.225 mg/ml of diclofenac. The IOLs remained immersed in the impregnation solution for 4 days in each case. Thereafter the absorbed quantities of diclofenac were driven out of the IOLs in double boilers at 97° C. as described above. […] In a second series of tests conducted with an impregnation solution of 0.9% NaCl with 0.9 mg/ml under the same conditions as in the first series, except that the residence in the impregnation solution was 49 days. The resulting average quantity of diclofenac fixed by the IOLs was 502 μg per implant.

[7] = Diclofenac absorbed versus time in the impregnation solution after sterilization (Example 12); assay type: physicochemical; conditions: for Average amount of diclofenac released (absorbed) per IOL: average of three IOLs; for amount of diclofenac released (absorbed) per IOL: individual tests
Procedure: This example included tests on 21 IOLs to ascertain the time it takes for the amount of diclofenac absorbed by the IOL to reach its equilibrium. Each IOL was immersed in 5 ml of 1.5 mg/ml diclofenac solution in deionized water and then sterilized as is conventional, namely at 120° C. for a period of 30 minutes. The sterilized IOLs were then allowed to cool and left in the impregnation solution at room temperature for respective periods of 10 days, 20 days, 35 days, 41 days, 50 days and 65 days. At the end of each of these periods, three IOLs were removed and the quantity of diclofenac was then measured by forced release comprising cycles in a double boiler at 97° C. followed by rest periods until the diclofenac was entirely released from the IOLs.
The amounts of diclofenac released and corresponding to the amounts absorbed for the respective periods are expressed in μg.

[8] = In vitro release of diclofenac from polyHEMA soft IOLs, impregnated for 72 hours (Example 7); assay type: physicochemical
Procedure: as §1, with “IOLs” for “IOLs The experiment of Example 7 was repeated leaving the IOLs in the saturated solution for 7 days instead of 3. The quantities released were checked after 6 hours and 24 hours.”

[9] = system: inflammatory reactions of the eye; experiment: Clinical examination of rabbit eyes implanted with indomethacin PMMA lenses (Example 3); assay type: in vivo; conditions: PMMA IOL impregnated with indomethacin implanted in rabbit eye, opposite eye as control
in vivo = conditions: rabbit
Procedure: (§2) Samples of aqueous humor (approximately 150 μl) and plasma (approximately 2 ml) were taken at random intervals.

[10] = system: inflammatory reactions of the eye; assay type: in vivo
Procedure: as §2

O=C(O)Cc1ccccc1Nc1c(Cl)cccc1Cl [diclofenac]
Released quantities ([1]; 6 hours): 122 µg/mL
Released quantities ([1]; 24 hours): 109 µg/mL
Cumulative or total released quantities ([1]; 6 hours): 122 µg/mL
Cumulative or total released quantities ([1]; 24 hours): 231 µg/mL
concentration of solution saturated with diclofenac [2]: 1800 µg/mL
quantities released (Q) ([3]; IOL saturated with diclofenac, medium renewed each interval, 6 H): 95 µg/mL
quantities released (Q) ([3]; medium renewed, 2 D): 40 µg/mL
quantities released (Q) ([3]; medium renewed, 3 D): 30 µg/mL
quantities released (Q) ([3]; medium renewed, 4 D): 20 µg/mL
quantities released (Q) ([3]; medium renewed, 5 D): 18 µg/mL
quantities released (Q) ([3]; medium renewed, 6 D): 12 µg/mL
quantities released (Q) ([3]; medium renewed, 7 D): 10 µg/mL
quantities released (Q) ([3]; medium renewed, 8 D): 10 µg/mL
quantities released (Q) ([3]; medium renewed, 9 D): 11 µg/mL
quantities released (Q) ([3]; medium renewed, 10 D): 12 µg/mL
quantities released (Q) ([3]; medium renewed, 11 D): 14 µg/mL
quantities released (Q) ([3]; medium renewed, 12 D): 16 µg/mL
quantities released (Q) ([3]; medium renewed, 13 D): 18 µg/mL
quantities released (Q) ([3]; medium renewed, 14 D): 20 µg/mL
quantities released (Q) ([3]; medium renewed, 24 H): 80 µg/mL
average amount of diclofenac released per implant ([4]; as Example 10, average of three implants): 89.79 µg
amounts of diclofenac released per implant ([4]; hydrophilic acrylic IOL autoclaved at 122° C. for 30 minutes in 1.5 mg/ml diclofenac in 0.9% NaCl, then 10 days in the solution at ambient temperature, individual implants): 83.57 µg and 101.66 µg and 84.16 µg
anti-inflammatory effect, summary [5]: real anti-inflammatory effect
quantity of diclofenac fixed per IOL ([6]; 0.225 mg/ml diclofenac in 0.9% NaCl): 70 µg
quantity of diclofenac fixed per IOL ([6]; 0.45 mg/ml diclofenac in 0.9% NaCl): 148 µg
quantity of diclofenac fixed per IOL ([6]; 0.90 mg/ml diclofenac in 0.9% NaCl): 276 µg
average quantity of diclofenac fixed per implant ([6]; 0.9 mg/ml diclofenac in 0.9% NaCl, 49 days in the impregnation solution): 502 µg
Average amount of diclofenac released (absorbed) per IOL ([7]; Day 0): 33.58 µg
Average amount of diclofenac released (absorbed) per IOL ([7]; Day 35): 92.96 µg
Average amount of diclofenac released (absorbed) per IOL ([7]; Day 41): 102.39 µg
Average amount of diclofenac released (absorbed) per IOL ([7]; Day 50): 104.33 µg
Average amount of diclofenac released (absorbed) per IOL ([7]; Day 65): 102.37 µg
amount of diclofenac released (absorbed) per IOL ([7]; sterilized at 120° C. for 30 minutes in 1.5 mg/ml diclofenac in deionized water, Day 0): 36.01 µg and 31.13 µg and 33.59 µg
amount of diclofenac released (absorbed) per IOL ([7]; sterilized, then left in impregnation solution at room temperature, Day 10): 83.57 µg and 101.66 µg and 84.16 µg
amount of diclofenac released (absorbed) per IOL ([7]; sterilized, then left in impregnation solution, Day 20): 92.68 µg and 95.60 µg and 109.99 µg
amount of diclofenac released (absorbed) per IOL ([7]; sterilized, then left in impregnation solution, Day 35): 86.65 µg and 100.06 µg and 92.18 µg
amount of diclofenac released (absorbed) per IOL ([7]; sterilized, then left in impregnation solution, Day 41): 106.94 µg and 108.33 µg and 91.90 µg
amount of diclofenac released (absorbed) per IOL ([7]; sterilized, then left in impregnation solution, Day 50): 85.29 µg and 114.80 µg and 112.90 µg
amount of diclofenac released (absorbed) per IOL ([7]; sterilized, then left in impregnation solution, Day 65): 107.06 µg and 98.64 µg and 101.41 µg
Released quantities ([8]; polyHEMA IOL impregnated 72 hours at room temperature in saturated diclofenac, release into 1 ml 0.9% NaCl, 6 hours): 127 µg/mL
Cumulative or total released quantities ([8]; polyHEMA IOL impregnated 72 hours, 6 hours): 127 µg/mL
Cumulative or total released quantities ([8]; polyHEMA IOL impregnated 72 hours, 24 hours): 222 µg/mL
Cumulative or total released quantities ([8]; polyHEMA IOL impregnated 72 hours, 96 hours): 333 µg/mL
Released quantities ([8]; polyHEMA IOL impregnated 72 hours, release into new 1 ml 0.9% NaCl, 24 hours): 95 µg/mL
Released quantities ([8]; polyHEMA IOL impregnated 72 hours, release into new 1 ml 0.9% NaCl, 96 hours): 111 µg/mL

COc1ccc2c(c1)c(CC(=O)O)c(C)n2C(=O)c1ccc(Cl)cc1 [indomethacin]
clinical examination: inflammatory reactions [9]: inflammatory reactions had disappeared by the tenth day from implantation
concentration at 7 day (in vivo): ~0.11 µg/mL
clinical observations: inflammatory reactions ([10]; polyHEMA lens impregnated with indomethacin, rabbit eye): inflammatory reactions disappeared at least as quickly as in Example 3
clinical observations: tolerance of the lenses ([10]; rabbit, in vivo): well tolerated
